Assay results: patent US10335503B2, “Compound that specifically binds to AMPA receptor” (Public University Corporation Yokohama City University, priority 2015, dated 2019)
*1 amine or outer side, *2 acyl side, *3 side chain or, on linkers, in order; H or OH if unused. Where a SMILES comes first, the peptide text is derived from it. Where no end group is shown, it is not given here. [ ]: non-standard residue; d: D form. NMeF = CN[C@@H](Cc1ccccc1)C(=O)O; Suc = O=C(CCC(=O)[*:2])[*:1]

Assays:
Conditions in all cases: Positive substance, concentration not given
Estrogen = experiment: Receptor binding panel: Estrogen
[1] = tested on: Glutamate (NMDA phencyclidine site); experiment: Receptor binding panel: Glutamate (NMDA phencyclidine site)
Dopamine D2 short = Dopamine D2 short (Homo sapiens, UniProt P14416); experiment: Receptor binding panel: Dopamine D2 short
CRF1 = target: T1, CRF1 (Homo sapiens, UniProt P34998); experiment: Receptor binding panel: CRF1
T1 sequence (P34998 24-415): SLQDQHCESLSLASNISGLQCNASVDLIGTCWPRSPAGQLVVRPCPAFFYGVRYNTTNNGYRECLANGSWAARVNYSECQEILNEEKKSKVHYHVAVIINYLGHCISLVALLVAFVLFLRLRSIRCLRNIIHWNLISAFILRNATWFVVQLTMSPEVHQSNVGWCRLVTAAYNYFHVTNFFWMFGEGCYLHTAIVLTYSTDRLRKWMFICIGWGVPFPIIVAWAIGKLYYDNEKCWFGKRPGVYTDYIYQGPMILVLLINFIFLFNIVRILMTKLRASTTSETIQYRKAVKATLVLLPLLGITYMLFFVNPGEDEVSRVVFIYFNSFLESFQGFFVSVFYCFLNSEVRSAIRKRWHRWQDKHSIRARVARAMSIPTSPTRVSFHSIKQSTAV

[2] = tested on: Glutamate (NMDA agonist site); experiment: Receptor binding panel: Glutamate (NMDA agonist site)
Leukotriene B4 = experiment: Receptor binding panel: Leukotriene B4
Neurokinin NK1 = Neurokinin NK1 (Homo sapiens, UniProt P25103); experiment: Receptor binding panel: Neurokinin NK1
Serotonin transporter = Serotonin transporter (Homo sapiens, UniProt P31645); experiment: Receptor binding panel: Serotonin transporter
Glutamate (Kainate) = experiment: Receptor binding panel: Glutamate (Kainate)
α2C-Adrenergic = α2C-Adrenergic (Homo sapiens, UniProt P18825); experiment: Receptor binding panel: α2C-Adrenergic
α2A-Adrenergic = α2A-Adrenergic (Homo sapiens, UniProt P08913); experiment: Receptor binding panel: α2A-Adrenergic
Nicotinic = experiment: Receptor binding panel: Nicotinic; design: species or system Human
Serotonin 5HT2A = Serotonin 5HT2A (Homo sapiens, UniProt P28223); experiment: Receptor binding panel: Serotonin 5HT2A
[3] = tested on: Glutamate (NMDA glycine site); experiment: Receptor binding panel: Glutamate (NMDA glycine site)
Leukotriene D4 = experiment: Receptor binding panel: Leukotriene D4
GABA A (BZ central) = experiment: Receptor binding panel: GABA A (BZ central)
Neurokinin NK3 = Neurokinin NK3 (Homo sapiens, UniProt P29371); experiment: Receptor binding panel: Neurokinin NK3
Opiate δ = Opiate δ (Homo sapiens, UniProt P41143); experiment: Receptor binding panel: Opiate δ
Glutamate (AMPA) = experiment: Receptor binding panel: Glutamate (AMPA)
K Channel KATP = experiment: Receptor binding panel: K Channel KATP
Sigma σ2 = Sigma σ2 (Homo sapiens, UniProt Q5BJF2); experiment: Receptor binding panel: Sigma σ2
Melatonin MT1 = Melatonin MT1 (Homo sapiens, UniProt P48039); experiment: Receptor binding panel: Melatonin MT1
Histamine H3 = Histamine H3 (Homo sapiens, UniProt Q9Y5N1); experiment: Receptor binding panel: Histamine H3
Sigma σ1 = Sigma σ1 (Homo sapiens, UniProt Q99720); experiment: Receptor binding panel: Sigma σ1
Histamine H2 = Histamine H2 (Homo sapiens, UniProt P25021); experiment: Receptor binding panel: Histamine H2
GABA A (Agonist site) = experiment: Receptor binding panel: GABA A (Agonist site)
Na channel site 2 = experiment: Receptor binding panel: Na channel site 2
Serotonin 5HT3 = Serotonin 5HT3 (Homo sapiens, UniProt P46098); experiment: Receptor binding panel: Serotonin 5HT3

Chain of α2A-Adrenergic (P08913 whole entry): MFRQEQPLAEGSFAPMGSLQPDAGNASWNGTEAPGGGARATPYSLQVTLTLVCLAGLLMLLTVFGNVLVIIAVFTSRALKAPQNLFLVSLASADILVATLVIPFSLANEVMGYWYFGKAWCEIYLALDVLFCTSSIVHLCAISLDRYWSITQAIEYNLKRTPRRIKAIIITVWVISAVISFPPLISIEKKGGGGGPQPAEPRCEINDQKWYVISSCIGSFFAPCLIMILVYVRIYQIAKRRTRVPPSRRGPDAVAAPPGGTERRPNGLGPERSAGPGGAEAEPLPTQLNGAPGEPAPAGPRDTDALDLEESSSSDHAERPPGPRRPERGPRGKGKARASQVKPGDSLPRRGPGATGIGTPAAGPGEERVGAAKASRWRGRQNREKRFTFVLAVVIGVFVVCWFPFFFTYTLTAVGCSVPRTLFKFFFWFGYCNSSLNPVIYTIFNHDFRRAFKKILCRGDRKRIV
Chain of Opiate δ (P41143 whole entry): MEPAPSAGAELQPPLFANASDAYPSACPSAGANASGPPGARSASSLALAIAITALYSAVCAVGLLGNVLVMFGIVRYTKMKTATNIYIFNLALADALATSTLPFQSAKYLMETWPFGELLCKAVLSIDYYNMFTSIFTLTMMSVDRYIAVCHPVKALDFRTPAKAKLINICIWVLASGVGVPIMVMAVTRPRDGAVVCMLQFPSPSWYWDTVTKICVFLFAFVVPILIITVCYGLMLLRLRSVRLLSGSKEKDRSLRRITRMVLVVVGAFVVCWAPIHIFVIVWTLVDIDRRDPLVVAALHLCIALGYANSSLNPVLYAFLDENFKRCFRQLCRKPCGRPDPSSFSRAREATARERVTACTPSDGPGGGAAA
Chain of Serotonin transporter (P31645 whole entry): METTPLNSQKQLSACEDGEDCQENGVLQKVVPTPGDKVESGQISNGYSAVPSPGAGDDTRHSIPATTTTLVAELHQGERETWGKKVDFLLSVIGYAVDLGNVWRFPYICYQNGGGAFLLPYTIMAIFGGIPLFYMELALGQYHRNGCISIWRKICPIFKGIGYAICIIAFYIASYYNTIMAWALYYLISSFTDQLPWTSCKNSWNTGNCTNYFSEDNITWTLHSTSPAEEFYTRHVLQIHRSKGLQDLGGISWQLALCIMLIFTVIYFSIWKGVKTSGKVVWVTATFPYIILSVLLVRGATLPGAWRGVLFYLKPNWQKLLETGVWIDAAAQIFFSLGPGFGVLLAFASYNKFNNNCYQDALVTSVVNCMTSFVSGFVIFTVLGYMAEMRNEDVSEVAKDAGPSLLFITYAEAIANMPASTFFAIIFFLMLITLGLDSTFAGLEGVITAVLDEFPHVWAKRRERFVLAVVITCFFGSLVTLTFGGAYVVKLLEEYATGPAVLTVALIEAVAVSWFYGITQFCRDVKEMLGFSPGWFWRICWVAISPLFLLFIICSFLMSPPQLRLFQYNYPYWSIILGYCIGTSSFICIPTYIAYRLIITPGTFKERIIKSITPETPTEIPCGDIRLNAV
Chain of Sigma σ1 (Q99720 whole entry): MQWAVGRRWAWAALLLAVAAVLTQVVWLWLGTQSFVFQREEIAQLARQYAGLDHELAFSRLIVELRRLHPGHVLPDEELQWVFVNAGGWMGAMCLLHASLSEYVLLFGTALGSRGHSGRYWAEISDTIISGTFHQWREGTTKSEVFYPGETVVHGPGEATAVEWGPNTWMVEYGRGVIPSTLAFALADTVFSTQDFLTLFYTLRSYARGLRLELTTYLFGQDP
Chain of Serotonin 5HT2A (P28223 whole entry): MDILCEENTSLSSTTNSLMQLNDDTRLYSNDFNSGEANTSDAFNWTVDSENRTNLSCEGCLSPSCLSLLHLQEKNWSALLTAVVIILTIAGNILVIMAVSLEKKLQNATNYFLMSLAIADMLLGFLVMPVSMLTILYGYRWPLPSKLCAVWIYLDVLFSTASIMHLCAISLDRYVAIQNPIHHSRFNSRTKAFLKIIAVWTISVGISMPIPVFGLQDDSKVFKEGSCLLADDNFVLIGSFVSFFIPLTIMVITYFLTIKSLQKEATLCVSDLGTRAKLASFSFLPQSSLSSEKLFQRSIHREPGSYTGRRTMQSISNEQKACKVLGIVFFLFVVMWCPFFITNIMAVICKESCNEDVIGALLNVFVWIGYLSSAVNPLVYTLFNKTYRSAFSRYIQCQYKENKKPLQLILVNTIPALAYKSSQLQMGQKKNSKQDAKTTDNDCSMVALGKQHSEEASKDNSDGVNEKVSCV
Chain of Melatonin MT1 (P48039 whole entry): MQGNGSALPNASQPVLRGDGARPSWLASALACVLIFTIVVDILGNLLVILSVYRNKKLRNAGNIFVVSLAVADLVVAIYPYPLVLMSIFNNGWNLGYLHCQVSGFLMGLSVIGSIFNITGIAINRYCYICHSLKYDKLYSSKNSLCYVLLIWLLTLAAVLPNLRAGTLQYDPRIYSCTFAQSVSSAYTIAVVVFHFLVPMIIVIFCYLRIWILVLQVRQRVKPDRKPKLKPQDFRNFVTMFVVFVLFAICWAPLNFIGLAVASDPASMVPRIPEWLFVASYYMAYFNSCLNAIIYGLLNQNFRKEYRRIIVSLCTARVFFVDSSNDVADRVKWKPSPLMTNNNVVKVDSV
Chain of Neurokinin NK3 (P29371 whole entry): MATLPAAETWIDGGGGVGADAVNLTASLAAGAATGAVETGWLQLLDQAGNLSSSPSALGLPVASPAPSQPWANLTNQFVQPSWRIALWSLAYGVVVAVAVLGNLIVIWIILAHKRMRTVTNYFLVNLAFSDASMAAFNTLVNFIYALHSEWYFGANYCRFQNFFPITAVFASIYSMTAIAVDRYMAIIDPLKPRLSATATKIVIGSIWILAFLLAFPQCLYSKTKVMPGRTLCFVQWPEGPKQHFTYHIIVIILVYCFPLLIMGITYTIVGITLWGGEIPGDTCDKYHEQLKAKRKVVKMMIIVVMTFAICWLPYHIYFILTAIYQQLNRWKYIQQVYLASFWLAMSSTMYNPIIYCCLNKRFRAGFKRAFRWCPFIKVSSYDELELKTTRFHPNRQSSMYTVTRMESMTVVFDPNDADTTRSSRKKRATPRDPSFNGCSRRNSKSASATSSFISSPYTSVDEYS
Chain of Dopamine D2 short (P14416 1-414 isoform P14416-2): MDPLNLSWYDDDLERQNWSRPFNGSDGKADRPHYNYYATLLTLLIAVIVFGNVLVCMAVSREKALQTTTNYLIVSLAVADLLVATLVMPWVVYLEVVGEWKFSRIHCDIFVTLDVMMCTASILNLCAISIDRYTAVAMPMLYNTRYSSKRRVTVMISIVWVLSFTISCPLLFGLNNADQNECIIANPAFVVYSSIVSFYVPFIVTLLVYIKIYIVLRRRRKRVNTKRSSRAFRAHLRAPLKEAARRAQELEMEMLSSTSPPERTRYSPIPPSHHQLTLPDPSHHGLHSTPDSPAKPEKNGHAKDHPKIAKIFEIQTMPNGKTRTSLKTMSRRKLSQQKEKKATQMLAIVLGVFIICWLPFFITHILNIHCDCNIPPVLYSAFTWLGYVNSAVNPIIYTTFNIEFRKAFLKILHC
Chain of Histamine H2 (P25021 whole entry): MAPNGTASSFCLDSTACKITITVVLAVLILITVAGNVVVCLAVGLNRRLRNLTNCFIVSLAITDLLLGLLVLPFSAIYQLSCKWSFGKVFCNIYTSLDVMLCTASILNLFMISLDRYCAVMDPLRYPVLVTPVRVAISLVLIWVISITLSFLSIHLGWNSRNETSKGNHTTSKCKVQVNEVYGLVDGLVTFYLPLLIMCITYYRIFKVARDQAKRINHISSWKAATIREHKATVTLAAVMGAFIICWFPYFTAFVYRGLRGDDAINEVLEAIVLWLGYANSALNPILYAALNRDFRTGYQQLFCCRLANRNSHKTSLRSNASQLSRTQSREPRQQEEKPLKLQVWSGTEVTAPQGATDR
Chain of Neurokinin NK1 (P25103 whole entry): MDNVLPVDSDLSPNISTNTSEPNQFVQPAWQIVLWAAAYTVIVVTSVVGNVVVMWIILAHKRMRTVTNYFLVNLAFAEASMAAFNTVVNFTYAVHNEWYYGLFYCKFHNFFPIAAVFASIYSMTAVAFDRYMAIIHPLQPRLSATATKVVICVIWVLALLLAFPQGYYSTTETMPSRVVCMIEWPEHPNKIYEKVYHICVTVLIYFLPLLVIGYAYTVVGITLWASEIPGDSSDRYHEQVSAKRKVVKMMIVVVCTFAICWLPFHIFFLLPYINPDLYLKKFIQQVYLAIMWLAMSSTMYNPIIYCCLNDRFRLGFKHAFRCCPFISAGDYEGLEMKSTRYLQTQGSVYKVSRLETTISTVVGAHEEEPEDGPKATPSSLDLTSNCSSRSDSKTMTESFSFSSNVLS
Chain of α2C-Adrenergic (P18825 whole entry): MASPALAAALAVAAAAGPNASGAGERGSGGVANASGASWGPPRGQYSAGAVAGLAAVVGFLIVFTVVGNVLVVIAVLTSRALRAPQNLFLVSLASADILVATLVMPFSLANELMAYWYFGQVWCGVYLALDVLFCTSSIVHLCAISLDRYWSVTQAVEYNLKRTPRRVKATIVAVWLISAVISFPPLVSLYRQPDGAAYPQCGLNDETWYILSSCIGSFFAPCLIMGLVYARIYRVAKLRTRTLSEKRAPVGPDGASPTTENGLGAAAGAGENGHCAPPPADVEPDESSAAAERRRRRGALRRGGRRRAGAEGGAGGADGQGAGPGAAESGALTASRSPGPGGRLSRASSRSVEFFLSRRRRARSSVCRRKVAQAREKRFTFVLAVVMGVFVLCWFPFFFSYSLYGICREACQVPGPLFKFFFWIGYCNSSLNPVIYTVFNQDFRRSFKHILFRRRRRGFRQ
Chain of Sigma σ2 (Q5BJF2 whole entry): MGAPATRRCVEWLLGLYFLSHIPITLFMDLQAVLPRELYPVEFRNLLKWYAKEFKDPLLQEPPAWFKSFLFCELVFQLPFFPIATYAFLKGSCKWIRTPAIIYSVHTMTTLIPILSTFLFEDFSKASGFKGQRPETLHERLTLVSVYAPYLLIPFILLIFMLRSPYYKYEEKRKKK

## C[C@]12CC[C@@H]3c4ccc(O)cc4CC[C@H]3[C@@H]1CC[C@@H]2O [β-Estradiol, reference compound]
Estrogen
  Inhibition (%): 100.00%

## (+)-MK-801 [reference compound]
[1]
  Inhibition (%): 100.00%

## (+)-Butaclamol [reference compound]
Dopamine D2 short
  Inhibition (%): 100.00%

## Urocortin human (DNPSLSIDLTFHLLRTLLELARTQSQRERAEQNRIIFDSV; ends and bridges not checked; UniProt P55089 83-122, looked up) [reference compound]
CRF1
  Inhibition (%): 100.00%

## N[C@@H](CCC(=O)O)C(=O)O [L-Glutamic acid, reference compound]
[2]
  Inhibition (%): 100.00%

## CCCCC/C=C\C[C@@H](O)/C=C/C=C/C=C\[C@@H](O)CCCC(=O)O [Leukotriene B4, reference compound]
Leukotriene B4
  Inhibition (%): 98.89%

## Ic1ccccc1CN[C@@H]1C2CCN(CC2)[C@@H]1C(c1ccccc1)c1ccccc1 (racemic) [L-703,606, reference compound]
Neurokinin NK1
  Inhibition (%): 94.45%

## CN(C)CCCN1c2ccccc2CCc2ccccc21 [Imipramine, reference compound]
Serotonin transporter
  Inhibition (%): 100.00%

## C=C(C)[C@H]1CN[C@H](C(=O)O)[C@H]1CC(=O)O [Kainic acid, reference compound]
Glutamate (Kainate)
  Inhibition (%): 100.00%

## COC(=O)[C@H]1[C@H]2C[C@H]3c4[nH]c5ccccc5c4CCN3C[C@H]2CC[C@@H]1O [Rauwolscine, reference compound]
α2C-Adrenergic
  Inhibition (%): 100.00%
α2A-Adrenergic
  Inhibition (%): 100.00%

## Clc1ccc(C2CC3CCC2N3)cn1 (racemic) [(±)-Epibatidine, reference compound]
Nicotinic
  Inhibition (%): 98.46%

## O=C(c1ccc(F)cc1)C1CCN(CCn2c(=O)[nH]c3ccccc3c2=O)CC1 [Ketanserin, reference compound]
Serotonin 5HT2A
  Inhibition (%): 99.20%

## O=C(O)/C(=C/c1c(C(=O)O)[nH]c2cc(Cl)cc(Cl)c12)c1ccccc1 [MDL105,519, reference compound]
[3]
  Inhibition (%): 100.00%

## CCCCC/C=C\C\C=C/C=C/C=C/[C@@H](SC[C@H](N)C(=O)NCC(=O)O)[C@@H](O)CCCC(=O)O [Leukotriene D4, reference compound]
Leukotriene D4
  Inhibition (%): 100.00%

## CN1C(=O)CN=C(c2ccccc2)c2cc(Cl)ccc21 [Diazepam, reference compound]
GABA A (BZ central)
  Inhibition (%): 100.00%

## CSCC[C@H](NC(=O)[C@H](CC(C)C)NC(=O)CNC(=O)[C@H](Cc1ccccc1)N(C)C(=O)[C@H](Cc1ccccc1)NC(=O)[C@H](CC(=O)O)NC(=O)CCC(=O)O)C(N)=O [Senktide, reference compound] (Suc-DF[NMeF]GLM-NH2)
Neurokinin NK3
  Inhibition (%): 98.43%

## Oc1ccc2c3c1O[C@H]1c4oc5ccccc5c4C[C@@]4(O)[C@@H](C2)N(CC2CC2)CC[C@]314 [Naltriben, reference compound]
Opiate δ
  Inhibition (%): 98.32%

## Cc1onc(O)c1C[C@H](N)C(=O)O [(S)-AMPA, reference compound]
Glutamate (AMPA)
  Inhibition (%): 100.00%

## COc1ccc(Cl)cc1C(=O)NCCc1ccc(S(=O)(=O)NC(=O)NC2CCCCC2)cc1 [Glybenclamide, reference compound]
K Channel KATP
  Inhibition (%): 100.00%

## O=C(CCCN1CCC(O)(c2ccc(Cl)cc2)CC1)c1ccc(F)cc1 [Haloperidol, reference compound]
Sigma σ2
  Inhibition (%): 100.00%

## COc1ccc2[nH]cc(CCNC(C)=O)c2c1 [Melatonin, reference compound]
Melatonin MT1
  Inhibition (%): 100.00%

## C[C@@H](N)Cc1c[nH]cn1 [(R)(−)-α-Methyl histamine, reference compound]
Histamine H3
  Inhibition (%): 98.17%

## CC(C)=CCN1CCC2(C)c3cc(O)ccc3CC1C2C (single isomer, unassigned; (+)) [(+)-Pentazocine, reference compound]
Sigma σ1
  Inhibition (%): 100.00%

## CN/C(=N/CCSCc1nc[nH]c1C)NC#N [Cimetidine, reference compound]
Histamine H2
  Inhibition (%): 100.00%

## NCc1cc(=O)[nH]o1 [Muscimol, reference compound]
GABA A (Agonist site)
  Inhibition (%): 97.63%

## CCCCOc1cc(C(=O)NCCN(CC)CC)c2ccccc2n1 [Dibucaine, reference compound]
Na channel site 2
  Inhibition (%): 97.37%

## CN1[C@@H]2CC[C@H]1C[C@@H](OC(=O)c1c[nH]c3ccccc13)C2 [Tropisetron, reference compound]
Serotonin 5HT3
  Inhibition (%): 99.80%
